Experimental data from US20150133341A1, “Intra-Operative Cancer Diagnosis Based on a Hyperpolarized Marker” (ALBEDA INNOVATIONS APS, priority 2012, published 2015).
Marks after values point to notes of the source that are not given here.

How the values were obtained:
[1] = system: breast cancer cells (MDA-MB-231); experiment: In cell 13C-NMR detection of 1,4-13C2-malate using 1,4-13C2-fumarate as hyperpolarized marker; assay type: cell-based, human; conditions: 5 million cells; 30 s; normalized to soluble protein; vs 184B5; FIG. 2
Experimental: Step 1: 1,4-^13C2 Fumaric acid (274 mg, 2.32 mmol) was dissolved in a DMSO solution (1660 μl) of trityl radical (Tris(8-carboxy-2,2,6,6-(tetra(methoxyethyl)-benzo-[1,2-4,5′]-bis-(1,3)-dithiole-4-yl)-methyl sodium salt) (19 mM) and gadolinium trimeric complex (Gadolinium chelate of 1,3,5-tris-(N-(DO3A-acetmido)-N-methyl-4-amino-2-methylphenyl)-[1,3,5]triazinane-2,4,6-trione)) (0.8 mM). A sample of this solution (32.5 mg) was hyperpolarized for 60 minutes, at 93.900 GHz and 1.3 K. The sample was dissolved in phosphate buffer (4 ml, pH 7.3, 40 mM) with addition of sodium hydroxide (22 μl, 12M) to neutralize the acid in the hyperpolarized sample.
Step 2: 100 μl of hyperpolarized sodium 1,4-^13C2-fumarate from step 1 was mixed into 500 μl RPMI medium containing 5 million breast cancer cells (MDA-MB-231, human epithelial breast cancer cell line) in a 5 mm NMR tube and placed in a 9.4 T NMR magnet. Signals of 1,4-^13C-malate were detected by acquiring a set of ^13C-MR spectra every 2 s with a 15 degree RF pulse. The amount of 1,4-^13C-malate was calculated 30 s after mixing the hyperpolarized sodium 1,4-^13C2-fumarate into the medium containing cells. Further, the amount of soluble protein in the MDA-MB-231 cells was determined, and the amount of 1,4-^13C-malate was normalized to the protein amount. […]

[2] = system: human breast cancer cells (MCF-7); experiment: Metabolism of hyperpolarized substrates in intact human breast cancer cells; assay type: cell-based; conditions: for Metabolic conversion (a.u.) MCF-7 cells: 20 million cells, maximum signal of product 1-13C lactate; for conversion in breast cancer cells over lymphocytes: quantified by cell number
Experimental: (§1) Human breast cancer cells (MCF-7) and human prostate cancer cells (PC-3) were grown in RPMI medium with 10% FBS and antibiotics. The cells were at confluence harvested by trypsination and washed once with 5 ml PBS. They were spun down and re-dissolved to a concentration of 20 million cells in 500 μl 40 mM phosphate buffer pH 7.3.
(§2) The cell suspensions were transferred to a 10 mm NMR tube and placed with connecting tubing in a 14.1 T magnet at 37 C.
(§3) Finland radical, carboxylic acid form (1 mg, 0.65 μmol) was dissolved in 1,3-^13C2 ethyl acetoacetate (50 μl, 51 mg, […]). To the solution was added a DMSO solution of the gadolinium complex ([alfa1,alfa4,alfa7-tris[(phenylmethoxy)methyl]-1,4,7,10-tetraazacyclododecane-1,4,7,10-tetraacetato(4-)]gadolinate(1-)]hydrogen) (0.8 mg of a 100 μmol/g solution). The concentration of radical and gadolinium were 13 mM and 1.6 mM respectively. 20 μmol of this composition was hyperpolarised under DNP conditions at 1.2 K in a 3.35 T magnetic field under irradiation with microwave (93.900 GHz). The polarization build-up constant was 750 s. The solid-state polarization was approx. 20%.
(§4) The hyperpolarized sample was dissolved in 5 ml phosphate buffer (40 mM, pH 7.3). The pH after dissolution was 7.3. Following dissolution, 1 ml of the substrate mixture was injected into 20 million cells in suspension. A series of 20 degree pulses every 2 s (56 scans in total) was acquired. The acquisition was started just before injection of the hyperpolarized substrate. Data are presented metabolic signal build-up as a function of time and as maximum metabolite signal.
(§5) The cells were grown and harvested or purified as described in example 3.10. The experiments were performed with single substrates administered to 20 million MCF-7 cells, PC-3 cells or lymphocytes dissolved in a volume of 500 μl 40 mM phosphate buffer pH 7.3. The cell suspensions were transferred to a 10 mm NMR tube and placed with connecting tubing in a 14.1 T magnet at 37° C.
^13C6-d7-glucose (22.8 mg, 0.118 mmol) was dissolved in polarization medium (25.0 mg). The polarization medium was made of Ox063 radical (19.1 mg, 13.3 μmol) was dissolved in 465 μl water. To this solution was added Gadoteridol (40 mg of 50 μmol/g solution in water). Concentrations: [Ox063]=26.5 mM, [Gd]=4 mM. The total weight of the glucose preparation was: 47.8 mg yielding 2.47 mmol glucose/g preparation.
1-^13C pyruvic acid (55 μl, 70.0 mg) was mixed with Finland radical, sodium salt (1.5 mg, 0.94 μmol) and Gadoteridol (2.1 mg of 50 μmol/g solution in water). Concentrations of radical and Gadolinium were: 17 mM; 2 mM.
20 μmol of either substrate was polarized in a 3.3 T polarizer operating at […] and approx. 1.2 K. Following 45 minutes polarization the samples were dissolved in 5 ml 40 mM phosphate buffer pH 7.3. In the experiments with pyruvic acid an equimolar addition of NaOH was added to neutralize the acid. 2 ml of the dissolved substrate mixture was injected into the cells in suspension. A series of 20 degree pulses every 2 s (56 scans in total) was acquired. The acquisition was started just before injection of the hyperpolarized substrate. Data are presented as maximum metabolite signals, hyperpolarized 1-^13C lactate produced from either glucose or pyruvate.

[3] = system: human prostate cancer cells (PC-3); experiment: Metabolism of hyperpolarized substrates in intact human prostate cancer cells; assay type: cell-based; conditions: for Metabolic conversion (a.u.) PC-3 cells: 20 million cells, maximum signal of product 1-13C lactate
Experimental: as §1, §2, §3, §4, §5
(§6) ^13C6-d7-glucose (22.8 mg, 0.118 mmol) was dissolved in polarization medium (25.0 mg). […]

[4] = system: human lymphocytes; experiment: Metabolism of hyperpolarized substrates in intact human lymphocytes; assay type: cell-based; conditions: for Metabolic conversion (a.u.) Lymphocytes: 20 million cells, maximum signal of product 1-13C lactate
Experimental: Human lymphocytes were purified from whole blood. Whole blood samples were drawn from a healthy volunteer into heparinised venous blood collection tubes (Venosafe vacumtubes from Terumo). For each experiment the blood was purified freshly: Three and a half 10 mL tubes of blood were pooled in each of four 50 mL Leucosep (Greiner) tubes prepared with 15 mL Histopaque 1077 (Sigma). The Leucosep tubes were spun for 15 min at 800× g at 24 C. The plasma was removed and the white blood cells were transferred to a 50 mL falcon tube by decanting and diluted 1:2 in PBS-Mg—Ca for a total volume of 50 mL. The cells were sedimented by centrifugation at 250×g for 60 min. Diluting with trypan blue and counting in hemocytometer determined the total number of lymphocytes before sedimentation. All cells were viable and the total number of cells in each cell batch was approx. 60 million. The lymphocytes were redissolved to a concentration of 20 million cells in 500 μl 40 mM phosphate buffer pH 7.3.
as §2, §3, §4, §5, §6

[5] = system: breast cancer cells (MCF-7) in the background of human lymphocytes; experiment: Co-polarized substrates in model voxels of breast cancer cells in lymphocyte background; assay type: cell-based; conditions: for Metabolic conversion (a.u) 50% cancer cells: 1 million MCF-7 cells and 20 million lymphocytes; for Metabolic conversion (a.u) 100% cancer cells: 2 million MCF-7 cells, 2x2x2 voxel model; for Metabolic conversion (a.u) 0% cancer cells: 40 million lymphocytes
From the text: The real time metabolism of breast cancer cells was compared with the metabolism of the lymph node background in model systems containing either only cancer cells (100% cancer), only lymphocytes (0% cancer) or a combination of the two cell types (50% cancer) in cellular concentrations expected to be present in a spatially resolved lymph node containing a macro metastasis. In the clinic, the interest is focused on macro metastasis since these are statistically those, which indicate aggressive cancers (P. Blumencranz, Surg Oncol Clin N Am 20 (2011) 467-485).
The model system was designed assuming a macro metastasis, which is defined to have a minimum diameter of 2 mm (P J. Diest et al., (2010) Breast disease 31: 65-81). In a 2×2×2 mm voxel, 50% of the volume will be cancer cells assuming that the macro metastasis is shaped as a sphere. Three experimental systems were established and carried out: 1) 2 million MCF-7 cells (corresponding to 100% cancer cells in a 2×2×2 voxel), 2) 1 million MCF-7 cells and 20 million lymphocytes (corresponding to 50% cancer cells in a 2×2×2 voxel) and 3) 40 million lymphocytes (corresponding to 0% cancer cells in a 2×2×2 voxel). The cells were grown and harvested or purified as described in example 3.10. The DNP preparations of 1-^13C-pyruvate and 1,3-^13C2-ethyl acetoacetate were made as described in examples 3.10. and 3.11. The substrates (20 μmol each) were co-polarized. The polarization, dissolution and administration to the cells were made as in example 3.11.

[6] = system: prostate cancer cells (PC-3); experiment: In cell 13C-NMR detection of 1-13C-lactate using 1-13C-pyruvate as hyperpolarized marker; assay type: cell-based, human; conditions: 5 million cells; PC-3 vs PNT-1A; FIG. 1
Experimental: Step 1: 1-^13C pyruvic acid (1286 mg, 14.4 mmol) was mixed with 25 mg of trityl radical (Tris(8-carboxy-2,2,6,6-(tetra(methoxyethyl)-benzo-[1,2-4,5′]-bis-(1,3)-dithiole-4-yl)-methyl sodium salt) (15 mM) and gadolinium trimeric complex (Gadolinium chelate of 1,3,5-tris-(N-(DO3A-acetmido)-N-methyl-4-amino-2-methylphenyl)-[1,3,5]triazinane-2,4,6-trione)) (0.6 mM). A sample of this solution (9.2 mg) was hyperpolarized for 60 minutes, at 93.900 GHz and 1.3 K. The sample was dissolved in phosphate buffer (4 ml, pH 7.3, 40 mM) with addition of sodium hydroxide (11 μl, 12M) to neutralize the acid in the hyperpolarized sample. The hyperpolarized solution was further diluted with tempered (37° C.) buffer to 30 ml.
Step 2: 500 μl of hyperpolarized sodium 1-^13C-pyruvate from step 1 was mixed into 5 million prostate cancer cells (PC-3, human prostate cell adenocarcinoma) in a 10 mm NMR tube and placed in a 9.4 T NMR magnet. Signals of 1-^13C-pyruvate and 1-^13C-lactate were detected by acquiring a set of ^13C-MR spectra every 3 s with a 15 degree RF pulse and the signal from 1-^13C-lactate was quantified.
Using an identical protocol as outlined above, a second study was performed in healthy prostate cells (PNT-1A, immortalized healthy prostate cells).

For O=[13C](O)/C=C/[13C](=O)O [1,4-^13C2-fumarate], the “concentration of 1,4-13C-malate in MDA-MB-231 cells compared to healthy breast cells” value [1] was “significantly higher”.
CCO[13C](=O)C[13C](C)=O [1,3-^13C2 ethyl acetoacetate] was tested, and the “hydrolysis to 1,3-13C2 acetoacetate” value ([2]; 20 million intact MCF-7 cells, FIG. 4) was “no conversion can be detected”, the “hydrolysis to 1,3-13C2 acetoacetate” value ([3]; 20 million intact PC-3 cells, FIG. 4) was “no conversion can be detected” and the “hydrolysis to 1,3-13C2 acetoacetate” value ([4]; 20 million intact lymphocytes, FIG. 4) was “hydrolysed”. The “metabolic conversion, healthy lymphocytes over cancer cells” value ([4]; cancer cells quantified by limit-of-detection) was “approx. 33 times”, the “Metabolic conversion (a.u) 50% cancer cells” value [5] was 632 a.u and the “Metabolic conversion (a.u) 100% cancer cells” value [5] was < 14* a.u. The “Metabolic conversion (a.u) 0% cancer cells” value [5] was 1027 a.u.
In the case of CC(=O)[13C](=O)O [1-^13C-pyruvate], the “1-13C-lactate signal in PC-3 cells compared to non-cancerous prostate cells” value [6] was “increased”, the “Metabolic conversion (a.u.) MCF-7 cells” value [2] was 1000 a.u and the “conversion in breast cancer cells over lymphocytes” value [2] was 50 times. The “Metabolic conversion (a.u.) PC-3 cells” value [3] was 200 a.u, the “Metabolic conversion (a.u.) Lymphocytes” value [4] was 40 a.u and the “Metabolic conversion (a.u) 50% cancer cells” value [5] was 1853 a.u. For the same compound, the “Metabolic conversion (a.u) 100% cancer cells” value [5] was 337 a.u and the “Metabolic conversion (a.u) 0% cancer cells” value [5] was 2620 a.u.
For OC[C@H]1OC(O)[C@H](O)[C@@H](O)[C@@H]1O (some centres unmarked) [^13C6-d7-glucose], the “Metabolic conversion (a.u.) MCF-7 cells” value [2] was 500 a.u, the “conversion in breast cancer cells over lymphocytes” value [2] was 50 times and the “Metabolic conversion (a.u.) PC-3 cells” value [3] was 200 a.u. The “Metabolic conversion (a.u.) Lymphocytes” value [4] was 10 a.u.
